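GI50 marks 50% less growth. TGI denotes the concentration required for complete inhibition of growth.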
Key:
Assay in all cases: NCI tumour cell line growth inhibition, 384-well format
A498 renal = test system: A498 renal
RPMI-8226 leukemia = test system: RPMI-8226 leukemia
ACHN renal = test system: ACHN renal
IGROV1 ovarian = test system: IGROV1 ovarian
HCT-116 colon = test system: HCT-116 colon
K-562 leukemia = test system: K-562 leukemia
M14 melanoma = test system: M14 melanoma
RXF 393 renal = test system: RXF 393 renal
MDA-MB-231 breast = test system: MDA-MB-231 breast
MALME-3M melanoma = test system: MALME-3M melanoma
LOX IMVI melanoma = test system: LOX IMVI melanoma
BT-549 breast = test system: BT-549 breast
SW-620 colon = test system: SW-620 colon
PC-3 prostate = test system: PC-3 prostate
KM12 colon = test system: KM12 colon
SNB-19 CNS = test system: SNB-19 CNS
SF-295 CNS = test system: SF-295 CNS
MCF7 breast = test system: MCF7 breast
TK-10 renal = test system: TK-10 renal
NCI-H522 lung = test system: NCI-H522 lung
SF-268 CNS = test system: SF-268 CNS
SN12C renal = test system: SN12C renal
MDA-MB-435 melanoma = test system: MDA-MB-435 melanoma
UO-31 renal = test system: UO-31 renal
DU-145 prostate = test system: DU-145 prostate
CCRF-CEM leukemia = test system: CCRF-CEM leukemia
MDA-MB-468 breast = test system: MDA-MB-468 breast
SK-MEL-28 melanoma = test system: SK-MEL-28 melanoma
HS 578T breast = test system: HS 578T breast
T-47D breast = test system: T-47D breast
U251 glioblastoma = test system: U251 glioblastoma
UACC-62 melanoma = test system: UACC-62 melanoma
CAKI-1 renal = test system: CAKI-1 renal
HT29 colon = test system: HT29 colon
MOLT-4 leukemia = test system: MOLT-4 leukemia
OVCAR-5 ovarian = test system: OVCAR-5 ovarian
OVCAR-3 ovarian = test system: OVCAR-3 ovarian
HCC-2998 colon = test system: HCC-2998 colon
HCT-15 colon = test system: HCT-15 colon
NCI-H460 NSCLC = test system: NCI-H460 NSCLC
SNB-75 CNS = test system: SNB-75 CNS
COLO 205 colon = test system: COLO 205 colon
HL-60(TB) leukemia = test system: HL-60(TB) leukemia
NCI-H322M lung = test system: NCI-H322M lung
OVCAR-8 ovarian = test system: OVCAR-8 ovarian
786-0 renal = test system: 786-0 renal
SR leukemia = test system: SR leukemia
SF-539 CNS = test system: SF-539 CNS
SK-MEL-5 melanoma = test system: SK-MEL-5 melanoma
HOP-62 NSCLC = test system: HOP-62 NSCLC
SK-OV-3 ovarian = test system: SK-OV-3 ovarian
NCI-H23 lung = test system: NCI-H23 lung
A549 NSCLC = test system: A549 NSCLC
NCI/ADR-RES ovarian = test system: NCI/ADR-RES ovarian
NCI-H226 lung = test system: NCI-H226 lung
HOP-92 NSCLC = test system: HOP-92 NSCLC
EKVX NSCLC = test system: EKVX NSCLC
OVCAR-4 ovarian = test system: OVCAR-4 ovarian
UACC-257 melanoma = test system: UACC-257 melanoma

O=c1[nH]cc(F)c(=O)[nH]1
GI50 (A498 renal): 5.89 µM
GI50 (RPMI-8226 leukemia): 0.162 µM
TGI (RPMI-8226 leukemia): 0.476 µM
GI50 (ACHN renal): 11.6 µM
GI50 (IGROV1 ovarian): > 30.6 µM
GI50 (HCT-116 colon): 3.94 µM
GI50 (K-562 leukemia): 18.7 µM
GI50 (M14 melanoma): 65.7 µM
GI50 (RXF 393 renal): 27.7 µM
GI50 (MDA-MB-231 breast): > 89.7 µM
GI50 (MALME-3M melanoma): 85.5 µM
GI50 (LOX IMVI melanoma): 17.1 µM
GI50 (BT-549 breast): 3.96 µM
GI50 (SW-620 colon): 25 µM
GI50 (PC-3 prostate): > 80.5 µM
GI50 (KM12 colon): 6.5 µM
GI50 (SNB-19 CNS): 51.7 µM
GI50 (SF-295 CNS): 22 µM
GI50 (MCF7 breast): 2.58 µM
GI50 (TK-10 renal): 35.1 µM
GI50 (NCI-H522 lung): 55.6 µM
GI50 (SF-268 CNS): 45.2 µM
GI50 (SN12C renal): 14.5 µM
GI50 (MDA-MB-435 melanoma): 16.8 µM
GI50 (UO-31 renal): 8.23 µM
GI50 (DU-145 prostate): 5.49 µM
GI50 (CCRF-CEM leukemia): > 27.9 µM
GI50 (MDA-MB-468 breast): 41.8 µM
TGI (MDA-MB-468 breast): > 86.2 µM
GI50 (SK-MEL-28 melanoma): 19.3 µM
GI50 (HS 578T breast): 12.1 µM
GI50 (T-47D breast): 78.3 µM
GI50 (U251 glioblastoma): 22 µM
GI50 (UACC-62 melanoma): 8.73 µM
GI50 (CAKI-1 renal): 9.98 µM
GI50 (HT29 colon): 7.03 µM
GI50 (MOLT-4 leukemia): 1.64 µM
TGI (MOLT-4 leukemia): 3.26 µM
GI50 (OVCAR-5 ovarian): 13.1 µM
GI50 (OVCAR-3 ovarian): 6.27 µM
TGI (OVCAR-3 ovarian): > 86.5 µM
GI50 (HCC-2998 colon): 13.6 µM
GI50 (HCT-15 colon): 5.28 µM
GI50 (NCI-H460 NSCLC): 3.23 µM
TGI (NCI-H460 NSCLC): 38.8 µM
GI50 (SNB-75 CNS): 7.12 µM
TGI (SNB-75 CNS): > 29.7 µM
GI50 (COLO 205 colon): 1.45 µM
GI50 (HL-60(TB) leukemia): 11 µM
GI50 (NCI-H322M lung): 32.7 µM
GI50 (OVCAR-8 ovarian): 37.2 µM
GI50 ([…]-0 renal): 9.77 µM
GI50 (SR leukemia): 2 µM
TGI (SR leukemia): 6.89 µM
GI50 (SF-539 CNS): 4.2 µM
GI50 (SK-MEL-5 melanoma): 5.77 µM
GI50 (HOP-62 NSCLC): 13.6 µM
GI50 (SK-OV-3 ovarian): > 69.9 µM
GI50 (NCI-H23 lung): 29.6 µM
GI50 (A549 NSCLC): 2.21 µM

Cc1sc2c(c1C)C(c1ccc(Cl)cc1)=N[C@@H](CC(=O)Nc1ccc(O)cc1)c1nnc(C)n1-2
GI50 (NCI/ADR-RES ovarian): 1.89 µM
TGI (NCI/ADR-RES ovarian): 8.45 µM
GI50 (A498 renal): 0.38 µM
TGI (A498 renal): 10.4 µM
GI50 (RPMI-8226 leukemia): 0.0231 µM
TGI (RPMI-8226 leukemia): 0.153 µM
GI50 (ACHN renal): 0.877 µM
TGI (ACHN renal): 15.6 µM
GI50 (IGROV1 ovarian): 0.158 µM
TGI (IGROV1 ovarian): 4.13 µM
GI50 (HCT-116 colon): 0.235 µM
TGI (HCT-116 colon): 12.5 µM
GI50 (K-562 leukemia): 0.133 µM
TGI (K-562 leukemia): 13.4 µM
GI50 (M14 melanoma): 0.262 µM
TGI (M14 melanoma): 12.1 µM
GI50 (RXF 393 renal): 0.74 µM
TGI (RXF 393 renal): 4.39 µM
GI50 (MDA-MB-231 breast): 0.0816 µM
TGI (MDA-MB-231 breast): 14.3 µM
GI50 (MALME-3M melanoma): 0.194 µM
TGI (MALME-3M melanoma): 3.6 µM
GI50 (LOX IMVI melanoma): 0.108 µM
TGI (LOX IMVI melanoma): 0.266 µM
GI50 (BT-549 breast): 0.0417 µM
TGI (BT-549 breast): 1.78 µM
GI50 (NCI-H226 lung): 0.0983 µM
TGI (NCI-H226 lung): 8.21 µM
GI50 (SW-620 colon): 1.18 µM
TGI (SW-620 colon): 18.5 µM
GI50 (PC-3 prostate): 0.228 µM
TGI (PC-3 prostate): 14.6 µM
GI50 (KM12 colon): 0.471 µM
TGI (KM12 colon): 16.4 µM
GI50 (SNB-19 CNS): 0.355 µM
TGI (SNB-19 CNS): 16.7 µM
GI50 (HOP-92 NSCLC): 0.156 µM
TGI (HOP-92 NSCLC): 11.5 µM
GI50 (SF-295 CNS): 0.803 µM
TGI (SF-295 CNS): 13.1 µM
GI50 (MCF7 breast): 0.0543 µM
TGI (MCF7 breast): 12.4 µM
GI50 (TK-10 renal): 0.154 µM
TGI (TK-10 renal): 3.7 µM
GI50 (NCI-H522 lung): 0.0624 µM
TGI (NCI-H522 lung): 0.73 µM
GI50 (SF-268 CNS): 0.627 µM
TGI (SF-268 CNS): 12.8 µM
GI50 (SN12C renal): 0.42 µM
TGI (SN12C renal): 13.1 µM
GI50 (MDA-MB-435 melanoma): 1.03 µM
TGI (MDA-MB-435 melanoma): 12.6 µM
GI50 (UO-31 renal): 0.632 µM
TGI (UO-31 renal): 14.4 µM
GI50 (DU-145 prostate): 1.17 µM
TGI (DU-145 prostate): 28 µM
GI50 (CCRF-CEM leukemia): 0.106 µM
TGI (CCRF-CEM leukemia): 8 µM
GI50 (MDA-MB-468 breast): 0.175 µM
TGI (MDA-MB-468 breast): 1.94 µM
GI50 (SK-MEL-28 melanoma): 0.581 µM
TGI (SK-MEL-28 melanoma): 15.7 µM
GI50 (HS 578T breast): 0.0372 µM
TGI (HS 578T breast): 0.355 µM
GI50 (T-47D breast): 0.252 µM
TGI (T-47D breast): 15.3 µM
GI50 (U251 glioblastoma): 0.644 µM
TGI (U251 glioblastoma): 14.6 µM
GI50 (UACC-62 melanoma): 0.0422 µM
TGI (UACC-62 melanoma): 2.96 µM
GI50 (CAKI-1 renal): 0.0449 µM
TGI (CAKI-1 renal): 7.15 µM
GI50 (EKVX NSCLC): 3.09 µM
TGI (EKVX NSCLC): 20.1 µM
GI50 (HT29 colon): 0.104 µM
TGI (HT29 colon): 2.08 µM
GI50 (MOLT-4 leukemia): 0.061 µM
TGI (MOLT-4 leukemia): 1.28 µM
GI50 (OVCAR-4 ovarian): 0.128 µM
TGI (OVCAR-4 ovarian): 0.798 µM
GI50 (UACC-257 melanoma): 0.174 µM
TGI (UACC-257 melanoma): 16.4 µM
GI50 (OVCAR-3 ovarian): 0.0666 µM
TGI (OVCAR-3 ovarian): 1.91 µM
GI50 (HCC-2998 colon): 0.107 µM
TGI (HCC-2998 colon): 1.05 µM
GI50 (HCT-15 colon): 0.247 µM
TGI (HCT-15 colon): 7.33 µM
GI50 (NCI-H460 NSCLC): 0.337 µM
TGI (NCI-H460 NSCLC): 14.9 µM
GI50 (SNB-75 CNS): 0.367 µM
TGI (SNB-75 CNS): 13.7 µM
GI50 (COLO 205 colon): 0.164 µM
TGI (COLO 205 colon): 2.09 µM
GI50 (HL-60(TB) leukemia): 0.0114 µM
TGI (HL-60(TB) leukemia): 0.0446 µM
GI50 (NCI-H322M lung): 0.219 µM
TGI (NCI-H322M lung): 14.3 µM
GI50 (OVCAR-8 ovarian): 0.118 µM
TGI (OVCAR-8 ovarian): 1.57 µM
GI50 ([…]-0 renal): 0.114 µM
TGI (786-0 renal): 12.6 µM
GI50 (SR leukemia): 0.0117 µM
TGI (SR leukemia): 0.0588 µM
GI50 (SF-539 CNS): 0.292 µM
TGI (SF-539 CNS): 12.5 µM
GI50 (SK-MEL-5 melanoma): 0.304 µM
TGI (SK-MEL-5 melanoma): 10.7 µM
GI50 (HOP-62 NSCLC): 0.158 µM
TGI (HOP-62 NSCLC): 3.9 µM
GI50 (SK-OV-3 ovarian): 0.173 µM
TGI (SK-OV-3 ovarian): 5.48 µM
GI50 (NCI-H23 lung): 0.213 µM
TGI (NCI-H23 lung): 2.86 µM
GI50 (A549 NSCLC): 0.596 µM
TGI (A549 NSCLC): 14.7 µM

— PubChem BioAssay (NCI)
